Earlier results on one compound are cited in patent US6979468B1, “Oral composition and method for the treatment of inflammatory cutaneous disorders” (Sirius Laboratories, priority 2002, dated 2005).

This data set relates to acne vulgaris. The settings on record: administered orally, 100–600 milligrams per day in divided doses taken 2 to 4 times per day.

Take `NC(=O)c1cccnc1` [nicotinamide]: the “effect on acne lesions” value is “decrease inflammatory lesions such as papules, pustules, and cysts, but not comedones”.
